Experimental data as given in patent US10722528B2, “Compositions and methods for inhibiting metastasis” (Augusta University Research Institute, Inc., priority 2018, dated 2020).

Assays:
[1] = tested on: EMT6 cells co-cultured with mMDSCs; test: EMT6 cells co-cultured with mMDSCs and NOS2 inhibitor 1400W (qPCR, Western blot); format: cell-based, mouse
Method: (§1) FIGS. 5A-5D are bar graphs showing expression of IL6 (FIG. 5A), IL1A (FIG. 5B), TGFB (FIG. 5C), and Vimentin (FIG. 5D) in EMT6 cells (white bars), EMT6 cells+0.5 mM DPTA (gray bars), and EMT6 cells+2.5 mM DPTA (black bars). FIG. 5E-5H are bar graphs showing expression of IL6 (FIG. 5E), IL1A (FIG. 5F), TGFB (FIG. 5G), and Vimentin (FIG. 5H) in EMT6 cells (white bars), EMT6 cells+mMDSCs (gray bars), and EMT6 cells+mMDSCs/1400W (black bar). FIG. 5I is a representative Western blot showing pSTAT3, STAT3, pSTAT1, STAT1, Vimentin, Twist, and actin expression in untreated EMT6 cell, or EMT6 cells treated with 0.5 mM or 2.5 mM DPTA, mMDSCs, or mMDSCs+1400W.
(§2) For RT-PCR analyses, KiCqStart SYBR Green predesigned primers (Sigma) were used for the following genes: […]
(§3) The relative fold change was measured by 2-ΔΔCt formula compared to the control cells. Means and differences of the means with 95% confidence intervals were obtained using GraphPad Prism (GraphPad Software Inc.). Two-tailed Student's t-test was used for unpaired analysis comparing average expression between conditions. P values<0.05 were considered statistically significant.

EMT6 cells = tested on: EMT6 cells
Method: as §1, §2, §3

[2] = tested on: MDSC-related genes in bone marrow cells; test: Expression of MDSC-related genes in bone marrow cells treated with GCSF and compound; format: cell-based, mouse
Text: FIG. 13A is a bar graph showing Ly6c+Ly6g+CD11b+gMDSCs differentiation in vitro in bone marrow cells treated with GCSF and the lead NCI compounds identified by computational screen against S100A8/A9 (calprotectin). FIGS. 13B-13K are representative flow cytometry plots showing the expression of CD11b and Ly6C in bone marrow cells treated with compounds 4, 10, 13, and 15. FIGS. 13L-13R are bar graphs showing the expression of MDSC-related genes (S100A8, FIG. 13L; S100A9, FIG. 13M; GCSF, FIG. 13N; IL1A, FIG. 13O; NOS2, FIG. 13P; CYB1, FIG. 13Q; and IL4R, FIG. 13R) in bone marrow cells treated with GCSF (black bars), GCSF+#4 (dark gray bars), GCSF+#10 (light gray bars), or untreated (white bars).
P values<0.05 were considered statistically significant.

[3] = tested on: gMDSC differentiation in bone marrow cells; test: In vitro screening of gMDSC differentiation in bone marrow cells (GM-CSF/G-CSF, flow cytometry); format: cell-based, mouse; conditions: GM-CSF, 3 days, flow cytometry (Ly6c+Ly6g+CD11b+)
Method: BALB/c mice were euthanized by CO2 asphyxiation. The femur bones were carefully resected under sterile conditions, cleaned to remove the attached muscle/tissue, and cleaned with 70% ethanol. The bones were then transferred on to a sterile Petri dish with culture medium Roswell Park Memorial Institute (RPMI)-1640. Both ends of femurs were carefully trimmed using sterile, sharp scissors to expose the interior marrow shaft. The contents of marrow were flushed with 2-4 ml of culture medium (RPMI-1640 supplemented with 10% FBS) using 1-ml insulin syringe with a 29G×½ needle. Later, the bone marrow was flushed out onto a 70 μm nylon cell strainer placed in a 50 ml Falcon conical tube (The bones should appear white once all the marrow has been expelled out completely). The collected BM cell suspension was further diluted with 20 ml of phosphate buffer saline (PBS), and the cell suspension was centrifuged at 1,000 rpm […]. The supernatant and the cell pellet were collected using red blood cell (RBC) lysis buffer and incubated for 5 minutes. 5-10 mL of PBS was added, and the solution was centrifuged at 1,000 rpm for 5 minutes. The supernatant was discarded and the cell pellet was washed with PBS, and re-centrifuged at 1,000 rpm for 5 minutes. The cells were re-suspended with RPMI medium containing 10% FBS and used for assays or culture.
Computational screening of certain select NCI chemical library was performed again the crystal structure of calprotectin. 40 lead compounds were identified with potential to bind to calprotectin and suppress gMDSC differentiation. In vitro screening using the 40 lead compounds was performed. Bone marrow cells were counted using hemocytometer or Beckman Z2 coulter counter and suspended in culture medium (RPMI 1640+10% FBS+1% penicillin/streptomycin) to achieve a final cell density of 2×10^6 BM cells/well. T20 ng/mL of recombinant mouse GM-CSF (Granulocyte Macrophage—Colony Stimulating Factor Protein) was added followed by 50 ng/mL G-CSF or individual selected drug. […]

4T1 tumor = test: Metastatic 4T1-injected mice treated with drug #10 (bioluminescence imaging, MDSC infiltration); format: in vivo, mouse
Text: FIG. 14A-14D are bioluminescence images of metastatic 4T1-injected mice untreated or treated with drug #10. FIG. 14E-14H are bar graphs showing the extent of mMDSC infiltration in the primary tumor (FIG. 14H) and the BM (FIG. 14E), spleen (FIG. 14F), and lung (FIG. 14G) of metastatic 4T1-injected mice untreated (black bars) or treated with drug #10 (gray bars). FIG. 14I-14L are bar graphs showing the extent of gMDSC infiltration in the primary tumor (FIG. 14L) and the BM (FIG. 14I), spleen (FIG. 14J), and lung (FIG. 14K) of metastatic 4T1-injected mice untreated (black bars) or treated with drug #10 (gray bars).
Luciferase expressing 4T1 or EMT6 murine breast cancer cells (50,000 cells per mice) were orthotopically implanted into the fat pads of 5-week-old BALB/c mice. (AT-3 cells in C57BL/J6 mice) and these mice were imaged utilizing the Caliper IVIS imaging systems. To analyse MDSCs, tumor-bearing mice were sacrificed every week and single-cell suspensions were prepared from bone marrows, spleens, lungs and tumor tissues. Bone marrow cells were obtained by flushing bones with PBS using a 28G 1/2 syringe. […]
These cells were labeled with fluorescence-conjugated Ly6C (#128015-dilution 1/400), Ly6G (#127605-dilution 1/100) and CD11b (#101208-Dilution 1/200) antibodies (Biolegend) and analyzed on a FACS canto flow cytometer (BD Biosciences).

EMT6-Luc tumor = test: In vivo gMDSC induction: EMT6-Luc tumor model in BALB/c mice injected with recombinant protein; set-up: species or system mouse; conditions: for tumor cell killing activity of T cells from treated mice (annexin V+ cells): compared to control treated mice; for levels of caspase 3 mediated apoptosis: treated mice versus saline
Method: In vivo gMDSC induction: EMT6 tumor model was selected as platform to examine the role of the proteins in regulation gMDSCs and the resultant metastatic cascade. EMT6-Luc cells were implanted into the mammary fat pads of BALB/c mice (purchased from Charles Rivers at NCI). The mice were then injected (via tail vein) either with saline (control), recombinant S100A9 or Calprotectin (100 ng/mouse) every alternate day for three weeks.
EMT6 tumor model was selected as platform to examine the role of the proteins in regulation gMDSCs and the resultant metastatic cascade. EMT6-Luc cells were implanted into the mammary fat pads of BALB/c mice (purchased from Charles Rivers at NCI). The mice were then injected (via tail vein) either with saline (control), recombinant S100A9 or Calprotectin (100 ng/mouse) every alternate day for three weeks.

T cell proliferation = test: In vitro suppression: bone marrow cells treated with recombinant protein plus GM-CSF, then co-incubated with activated CFSE labeled T cells; format: cell-based, mouse; conditions: 7 days, then 3 days with activated CFSE labeled T cells
Method: In vitro suppression: Multigrams of recombinant Calprotectin, S100A8 and S100A9 proteins were isolated, purified and confirmed for their activity with commercially available proteins. Bone marrow cells were treated with recombinant S100A8 (A8), S100A(9) or Calprotectin (CALP) in presence of GM-CSF (Granulocyte Macrophage-Colony Stimulating Factor Protein) in vitro for 7 days for gMDSC differentiation. The cells were then co-mixed and incubated 3 more days with activated CFSE labeled T cells.
Multigrams of recombinant Calprotectin, S100A8 and S100A9 proteins were isolated, purified and confirmed for their activity with commercially available proteins. Bone marrow cells were treated with recombinant S10A8 (A8), S100A(9) or Calprotectin (CALP) in presence of GM-CSF (Granulocyte Macrophage—Colony Stimulating Factor Protein) in vitro for 7 days for gMDSC differentiation. The cells were then co-mixed and incubated 3 more days with activated CFSE labeled T cells.

[4] = 100 ng/mouse via tail vein every alternate day for three weeks

Question: For `CC(=N)NCc1cccc(CN)c1` [1400 W], which “activation of pStat1 and pStat3 pathways and EMT markers vimentin and twist (Western blot)” value [1] is on record?
Answer: suppressed the activation of the latter pathways and EMT markers

Question: What about the “mMDSC-induced transcription of IL1A, IL6, TGFB1 and VIM (qPCR)” value [1] of the same molecule?
Answer: suppress the mMDSC-induced transcription of these genes

Question: `NCCCN(CCCN)/[N+]([O-])=N/O` [DPTA] was tested. Which “expression of IL1A, IL6, TGFB1 and VIM (qPCR)” value (EMT6 cells; 0.5 mM and 2.5 mM DPTA) did it give?
Answer: induced the expressions of indicated genes

Question: What about the “activation of pStat1 and pStat3 signaling pathways and protein levels of EMT markers vimentin and twist (Western blot)” value (EMT6 cells; 0.5 mM or 2.5 mM DPTA) of the same molecule?
Answer: induced the activation of pStat1 and pStat3 signaling pathways and protein levels of EMT markers

Question: For `O=C1c2cccc(Oc3ccccc3)c2C(=O)c2cccc(Oc3ccccc3)c21` [compound 4, 1,5-diphenoxyanthracen-9-10-dione], which “expression of MDSC-related genes S100A8, S100S9, GCSF, IL1A, NOS2, CYBB1, and IL4R” value [2] is on record?
Answer: reduced the expression

Question: And the “inhibition of gMDSC differentiation” value [3]?
Answer: significant inhibition of gMDSC differentiation

Question: For `CC12CCC3C(CCC4Cc5[nH]c6ccccc6c5CC43C)C1CCC2O` (stereo not shown) [compound 10, 12a,14a-dimethyl-1,2,3,3a,3b,4,5,5a,6,7,12,12a,12b,13,14,14a-hexadecahydrocyclopenta[5,6]naphtho[2,1-b]carbazol-1-ol], which “expression of MDSC-related genes S100A8, S100S9, GCSF, IL1A, NOS2, CYBB1, and IL4R” value [2] is on record?
Answer: reduced the expression

Question: What about the “tumor growth and metastasis” value (4T1 tumor; bioluminescence images) of the same molecule?
Answer: suppresses tumor growth and metastasis

Question: What about the “gMDSC infiltration into the tumor and distant organ sites” value (4T1 tumor; primary tumor, BM, spleen, lung) of the same molecule?
Answer: reduce gMDSC infiltration

Question: And the “inhibition of gMDSC differentiation” value [3]?
Answer: significant inhibition of gMDSC differentiation

Question: For `O=[N+]([O-])C1C(c2ccccc2)C12c1ccccc1-c1ccccc12` (stereo not shown) [compound 27], which “inhibition of gMDSC differentiation” value [3] is on record?
Answer: significant inhibition of gMDSC differentiation

Question: With “Calprotectin: recombinant complex of the mammalian proteins S100A8 and S100A9” as the molecule, how does the “CD8+ T cells” value (EMT6-Luc tumor; [4]) read?
Answer: increase in CD8+ T cells

Question: What about the “primary tumor growth and spontaneous metastasis” value (EMT6-Luc tumor; [4]) of the same molecule?
Answer: enhanced primary tumor growth and spontaneous metastasis to the lungs and liver

Question: What about the “tumor cell killing activity of T cells from treated mice (annexin V+ cells)” value (EMT6-Luc tumor) of the same molecule?
Answer: significantly suppressed the tumor cell killing activity

Question: What about the “levels of caspase 3 mediated apoptosis” value (EMT6-Luc tumor) of the same molecule?
Answer: reduced

Question: And the “suppression of T cell proliferation by protein treated gMDSCs” value (T cell proliferation)?
Answer: suppressed T cell proliferation more efficiently compared to S100A9

Question: How did the “tumor cell killing activity of T cells from treated mice (annexin V+ cells)” value (EMT6-Luc tumor) turn out when “S100A9: recombinant S100A9 protein, subunit of calprotectin” was run?
Answer: moderate activity

Question: And the “levels of caspase 3 mediated apoptosis” value (EMT6-Luc tumor)?
Answer: reduced

B1: S100A8: recombinant S100A8 protein, subunit of calprotectin (protein, UniProt P05109 1-93, looked up)
Protein S100-A8: MLTELEKALNSIIDVYHKYSLIKGNFHAVYRDDLKKLLETECPQYIRKKGADVWFKELDINTDGAVNFQEFLILVIKMGVAAHKKSHEESHKE
Question: How did the “suppression of T cell proliferation by protein treated gMDSCs” value (T cell proliferation) turn out when B1 was run?
Answer: no significant effect
